According to US20230293432A1, “POLYMERIC MICELLES COMPRISING GLUCURONIDE-PRODRUGS” (Rheinisch-Westfälische Technische Hochschule (RWTH), priority 2020, published 2023):

System: breast cancer 4T1 cells
Experiment: In vitro calreticulin (CRT) translocation by flow cytometry
Assay type: cell-based
Details: anti-CRT antibody staining, vs untreated control, FIG. 6A
Protocol: In a further experiment the ability of doxorubicin and doxorubicin double spacer prodrug and doxorubicin double spacer prodrug in polymeric micelles to induce immunogenicity of tumor cells was assessed in vitro. As one of the most studied phenotypes of immunogenic cell death, calreticulin (CRT) […] to outer surface of cancer cells is able to attract antigen presenting cells to endocytose apoptotic cancer cells. CRT translocation was measured by flow cryometry. To assess CRT translocation induced by the formulations, they were added to breast cancer 4T1 cells which were cultured overnight at 37° C. in RPMI 1640 medium containing 10% FBS and 1% penicillin. After incubation, the cells were washed with PBS and then detached. The CRT translocated to the outer surface of the cells was labeled with anti-CRT antibodies.

Q: Which “signal of CRT in flow cytometry plots” value does the source give for COc1cccc2c1C(=O)c1c(O)c3c(c(O)c1C2=O)C[C@@](O)(C(=O)CO)C[C@@H]3O[C@H]1C[C@H](N)[C@H](O)[C@H](C)O1 [DOX, doxorubicin] here?
A: higher signal of CRT compared to untreated control
